Drawing on patent publication US20190060428A1, “FORMULATIONS FOR NEOPLASIA VACCINES AND METHODS OF PREPARING THEREOF” (The Broad Institue Inc., priority 2015, published 2019), this text covers solubility for 84 compounds.

The nature of the data set: physchem. The conditions noted are these: pH 6.
As usually defined, the solubility is the dissolved amount per volume that the medium holds. The low end stands for a poorly soluble substance, the high end for a readily soluble substance. On to H-AALCPASRALEEKKGNYV-OH, for which the solubility was > 2000 µg/mL.
Then H-ARLQSKEYPVIFKSIMRQRLISPQL-OH, with > 2000 µg/mL; and H-SAVSAASIPAMHINQATNGGGS-OH, with < 2000 µg/mL.
Then H-ISSLFVSYFLYRVVFHFE-OH, with < 2000 µg/mL; and H-EIHGKCENMTITSRGTTVTPTKETVSLG-OH, with > 2000 µg/mL; and H-PAHPSQGAVPPSRAAAEPHLKPSPSELQTA-OH, with > 2000 µg/mL.
Then H-LLTDRNTSGTTFTLLGVSDYPELQVPLFLVFLA-OH, with > 2000 µg/mL; and H-EEFNRRVRENPWDTQLWMAFVAFQDE-OH, with < 2000 µg/mL.
H-SPQSGGAATLAAQARLQPVHLDVWGEHERG-OH: the solubility is > 2000 µg/mL.
The figure for H-GTEPEPAFQDDAVNAPLEFKMAAGSSG-OH is > 2000 µg/mL; for H-KQYLDHSGNLMSMHNIKIFMFQLLRG-OH it is < 2000 µg/mL.
On to H-SGARIGAPPPHATATSSSSFMPGTWGREDL-OH, for which the solubility is > 2000 µg/mL.
The figure for H-WTPAAPTAMAEVGPGHTPAHPSQGAVPP-OH is > 2000 µg/mL.
The figure for H-SGQPAPEETVLFLGLLHGLLLILRRLRGG-OH is < 2000 µg/mL; for H-SHTQTTLFHTFYELLIQKNKHK-OH it is > 2000 µg/mL; for H-SRLQTRKNKKLALSSTPSNIAPSD-OH it is > 2000 µg/mL.
Then H-EDSDKLFESKAELADHQKF-OH, with > 2000 µg/mL; and H-DEQGREAELARSGPSAAGPVRLKPGLVPGL-OH, with > 2000 µg/mL; and H-VNGISSQPQVPFYPNLQKSQYYSTV-OH, with > 2000 µg/mL.
Consider H-TWAGHVSTALARPLGAPWAEPGSCGPGTN-OH, for which the solubility was > 2000 µg/mL.
The figure for H-VDKNGRRRLVYLVENPGGYVAYS-OH is > 2000 µg/mL; for H-LKEMNEKVSFIKNSLLSLDSQVGHLQD-OH it is < 2000 µg/mL; for H-DVGVNSLQQYYLSPDLHFSLIQKENLD-OH it is < 2000 µg/mL.
As for H-RLVLGKFGDLTNNFSSPHAR-OH, the solubility was > 2000 µg/mL.
The figure for H-LHFIMPEKFSFWEDFEE-OH is < 2000 µg/mL; for H-SVLREDLGQLEYKYQYAYFRMGIKHPD-OH it is < 2000 µg/mL; for H-FLLQVPGSPVVSPSA-OH it is > 2000 µg/mL.
Then H-NHSAKFLKELTLAMDELEENFRG-OH, with < 2000 µg/mL; and H-GSTLSPVPWLPSEEFTLWSSLSPPG-OH, with > 2000 µg/mL; and H-AAVDSVTIPPAQCYLSLLHLQQRRMQSA-OH, with > 2000 µg/mL.
The figure for H-WCTEMKRVFGFPVHYTDVSNMS-OH is > 2000 µg/mL.
Regarding H-TLDDIKEWLEDEGQVLNIQMRRTLHK-OH, the solubility was < 2000 µg/mL.
Then H-DNHLRRNRLIVVDLFHGQL-OH, with > 2000 µg/mL; and H-GAVGATKVPRNQDWL-OH, with > 2000 µg/mL; and H-RGQIKLADFRLARLYSSEESR-OH, with > 2000 µg/mL.
The figure for H-TGKPEMDFVRLAQLFARARPMGLF-OH is > 2000 µg/mL.
In the case of H-KQGWTTEGIWKDVYIIKL-OH, the solubility was < 2000 µg/mL.
Then H-SHHTHSYQRYSHPLFLPGHRLDPPI-OH, with > 2000 µg/mL; and H-ASATEPANDSLFSPGAANLFSTYLAR-OH, with > 2000 µg/mL; and H-VEQGHVRVGPDVVTHPAFLV-OH, with > 2000 µg/mL.
With H-MSQDIKKADEQIESMTYSTERKT-OH, the solubility was > 2000 µg/mL.
The figure for H-LSVPFTCGVNFGDSIEDLEI-OH is > 2000 µg/mL; for H-SEIDFPMARSKLLKKKLPSKDL-OH it is > 2000 µg/mL.
Then H-GHQKLPGKIHLFEAEFTQVAKKEPDG-OH, with > 2000 µg/mL; and H-DGAWPVLLDKFVEWYKDKQMS-OH, with > 2000 µg/mL; and H-AQRKLYQDVMHENFTNLLSVGHQP-OH, with > 2000 µg/mL.
Then H-IGALNPKRAAFFAEHYESWE-OH, with < 2000 µg/mL; and H-NNQTNSPTTPNFGSSGSFNLPNSGD-OH, with > 2000 µg/mL; and H-RYNSTAATNEVSEVTVFSKSPVT-OH, with > 2000 µg/mL.
On to H-AESAQRQGPNGGGEQSANEF-OH, for which the solubility is > 2000 µg/mL.
Then H-DKGHQFHVHPLLHSGDDLDP-OH, with > 2000 µg/mL; and H-ERLSIQNFSKLLNDNIFYMS-OH, with < 2000 µg/mL; and H-GLEQLESIINFEKLTEWTSS-OH, with < 2000 µg/mL.
Then H-YFDVVERSTEKIVDTSLIFNI-OH, with < 2000 µg/mL.
Then H-NNGPVTILQRIHHMAASHVNITS-OH, with < 2000 µg/mL; and H-YRMYQKGQETSTNLIASIFA-OH, with < 2000 µg/mL.
`CC(C)C[C@H](NC(=O)[C@H](C)N)C(=O)N[C@@H](CCC(=O)O)C(=O)N[C@@H](CCC(=O)O)C(=O)N[C@@H](CCCCN)C(=O)N[C@@H](CCCCN)C(=O)NCC(=O)N[C@@H](CC(N)=O)C(=O)N[C@@H](Cc1ccc(O)cc1)C(=O)N[C@H](C(=O)N[C@H](C(=O)N[C@H](C(=O)N[C@@H](CC(=O)O)C(=O)N[C@@H](Cc1c[nH]cn1)C(=O)NCC(=O)N[C@@H](CO)C(=O)N[C@@H](CS)C(=O)N[C@H](C(=O)O)C(C)C)[C@@H](C)O)C(C)C)C(C)C`: the solubility is > 2000 µg/mL.
Then H-FYSNSTVSETQWKVTVTPR-OH, with > 2000 µg/mL; and H-LMGRLQHTFKQKMTGVGASLEKR-OH, with > 2000 µg/mL.
The figure for H-SDAFSGLTALPQSILLFGP-OH is > 2000 µg/mL; for H-LPDEVSGLEQLESIINFEKL-OH it is > 2000 µg/mL; for H-ALCPASRALEEKKGNYVV-OH it is > 2000 µg/mL.
The figure for H-TSGSSTALPGSNPSTMDSGSGD-OH is < 2000 µg/mL.
Consider H-AIISSLFVSYFLYR-OH, for which the solubility was < 2000 µg/mL.
Then H-HKSIGQPKLSTHPFLCPKPQKMNTSLGQHLTL-OH, with > 2000 µg/mL.
As for H-PGGDSGELITDAHELGVAHPPGY-OH, the solubility is > 2000 µg/mL.
In the case of H-SHNELADSGIPENSFNVSSLVE-OH, the solubility is > 2000 µg/mL.
Then H-FVGKLQRHPVAVDVLL-OH, with > 2000 µg/mL; and H-IAMGFPQKDLKAYTGTIL-OH, with > 2000 µg/mL; and H-FPVVQSTEDVFPQGLPNEYAFVT-OH, with > 2000 µg/mL.
Take H-FKMDRQGVTQVLSCLSYISALGMMT-OH: the solubility is < 2000 µg/mL.
Consider H-VPRIAELMNKKLPSFGPYLE-OH, for which the solubility is > 2000 µg/mL.
The figure for H-KAHVEGDGVVEEIIRYHPFLYDRET-OH is < 2000 µg/mL; for H-EQGPWQSEGQTWRAAGGRVPVPCPAAGPG-OH it is > 2000 µg/mL; for H-DHVSIILLSATIPNALEFADWIG-OH it is < 2000 µg/mL.
Then H-LHTHYDYVSALHPVSTPSKEYTSA-OH, with > 2000 µg/mL; and H-HRPRPFSPGKQVSSAPLFMLDLYN-OH, with > 2000 µg/mL.
The figure for H-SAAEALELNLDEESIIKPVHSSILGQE-OH is > 2000 µg/mL; for H-LTKLKFSLKKSFNFFDEYF-OH it is < 2000 µg/mL; for H-GSVLQFMPFTTVSELMKVSAMSSPKV-OH it is > 2000 µg/mL.
With H-LARDIPPAVTGKWKLSDLRRYGAVPSG-OH, the solubility was > 2000 µg/mL.
The figure for H-TLKEEVNELQYRQKQLELLITNLMRQVD-OH is < 2000 µg/mL; for H-AHRQGEKQHLLPVFSRLALRLPWRHSVQL-OH it is > 2000 µg/mL.
In the case of H-AIYHKYYHYLYSYYLPASLKNMVD-OH, the solubility is < 2000 µg/mL.
